{"source": "patent EP0184738A2", "about": "“Imidazole derivatives, medicaments containing these compounds, and process for their preparation” (Dr. Karl Thomae GmbH, priority 1984, dated 1986)", "data": [{"tested_on": "despinalisierten Meerschweinchen", "assay": "Determination of the positive inotropic effect in despinalised guinea pigs", "format": "in vivo", "details": "1 mg/kg i.v. (Vena jugularis), mean of 3 despinalised guinea pigs, left ventricular pressure", "description": "Bestimmung der positiv inotropen Wirkung an despinalisierten Meerschweinchen\nDie Untersuchungen wurden an despinalisierten Meerschweinchen durchgeführt. Die Tiere wurden mit 50 % 02 + 50 % N2 beatmet. Der arterielle Blutdruck wurde in der rechten Arteria Carotis mit einem Bell and Howell Druckwandler (4-327-I) gemessen. Für die Erfassung der positiv inotropen Wirkung wurde mit einem Kathetertipmanometer (Millar PR-249) der Druck in dem linken Ventrikel (LV) gemessen. Mittels eines Differenzierers wurde LV-dp/dtmax gewonnen. Die zu untersuchenden Substanzen wurden in eine Vena jugularis injiziert. Als Lösungsdmittel diente 0,9 % NaCl+Polydiol 200 (1:1).\nJede Substanz wurde an 3 Meerschweinchen überprüft. Die Dosen waren 0,1 - 3 mg/kg i.v.. Die nachfolgende Tabelle enthält die Mittelwerte bei 1 mg/kg i.v..\nDie neuen Verbindungen sind gut verträglich, so konnte bei der Untersuchung der Substanzen A bis D bis zu einer Dosis von 3 mg/kg i.v. keinerlei herztoxische Wirkungen bzw. Kreislaufschäden beobachtet werden.", "units": {"Zunahme in LV-dp/dtmax": "%"}, "values": [{"smiles": "O=c1[nH][nH]cc2nc(-c3ccc4ccccc4c3)nc1-2", "note": "[Substanz A, 2-(Naphth-2-yl)-5H-imidazo[4,5-d]pyridazin-4-on]", "Zunahme in LV-dp/dtmax": 28}, {"smiles": "O=c1ccc2[nH]c(-c3cc4ccccc4cc3Cl)nc2[nH]1", "note": "[Substanz B, 2-(3-Chlor-naphth-2-yl)-lH-imidazo[4,5-b]pyridin-5-on]", "Zunahme in LV-dp/dtmax": 30}, {"smiles": "COc1ncc2[nH]c(-c3ccc4ccccc4c3)nc2n1", "note": "[Substanz C, 2-Methoxy-8-(naphth-2-yl)-purin]", "Zunahme in LV-dp/dtmax": 33}, {"smiles": "CCCOc1cc2ccccc2cc1-c1nc2cnc(Cl)nc2[nH]1", "note": "[Substanz D, 2-Chlor-8-(3-n-propoxy-naphth-2-yl)-purin]", "Zunahme in LV-dp/dtmax": 27}]}]}
